# Test results as given in patent publication US8178568B2, “Sulfone compounds which modulate the CB2 receptor” (Boehringer Ingelheim International GmbH, priority 2008, dated 2012).
# Target: T1, human CB2R (Homo sapiens, UniProt P34972)
# T1 construct: host or cells: CHO cells
# Experiment: CB2R mediated modulation of cAMP synthesis
# Format: cell-based
# Conditions: not given
# Procedure: B. CB2R Mediated Modulation of cAMP Synthesis:
# Compounds of the invention were evaluated for their CB2 agonist or inverse agonistic activity in accordance with the following experimental method.
# CHO cells expressing human CB2R (Euroscreen) were plated at a density of 5000 cells per well in 384 well plates and incubated overnight at 37° C. After removing the media, the cells were treated with test compounds diluted in stimulation buffer containing 1 mM IBMX, 0.25% BSA and 10 uM Forskolin. The assay was incubated for 30 minutes at 37° C. Cells were lysed and the cAMP concentration was measured using DiscoverX-XS cAMP kit, following the manufacturer's protocol. In this setting, agonists will decrease forskolin induced production of cAMP while inverse agonists will further increase forskolin induced production of cAMP. EC50 of agonists were calculated as follows. The maximal amount of cAMP produced by forskolin compared to the level of cAMP inhibited by 1 uM CP55940 is defined as 100%. The EC50 value of each test compound was determined as the concentration at which 50% of the forskolin-stimulated cAMP synthesis was inhibited. Data was analyzed using a four-parameter logistic model. (Model 205 of XLfit 4.0).
# T1 sequence (P34972 whole entry): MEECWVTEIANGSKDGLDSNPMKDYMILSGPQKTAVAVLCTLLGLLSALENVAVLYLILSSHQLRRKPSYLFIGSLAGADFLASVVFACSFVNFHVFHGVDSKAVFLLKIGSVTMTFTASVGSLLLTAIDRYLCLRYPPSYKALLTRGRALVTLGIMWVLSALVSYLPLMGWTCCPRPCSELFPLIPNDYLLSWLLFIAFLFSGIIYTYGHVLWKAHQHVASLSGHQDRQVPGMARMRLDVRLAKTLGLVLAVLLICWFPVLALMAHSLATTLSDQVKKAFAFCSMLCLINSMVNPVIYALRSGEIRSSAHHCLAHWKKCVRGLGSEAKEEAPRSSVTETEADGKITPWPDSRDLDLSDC
row,SMILES,EC50
1,CC(C)(C)c1cc(N2CCC(C)(S(=O)(=O)c3ccc(Cl)cc3)C2=O)on1 (stereo not drawn),25 nM
2,CC(C)(C)c1cc(NC(=O)C(C)(CCO)S(=O)(=O)C2CCOCC2)on1 (stereo not drawn),21 nM
3,CC(C)(C)c1cc(N2CC[C@@](C)(S(=O)(=O)c3ccc(Cl)cc3)C2=O)on1,37 nM
4,CC(C)(C)c1cc(N2CCC(C)(S(=O)(=O)c3ccc(Cl)cc3)C2=O)no1 (stereo not drawn),14 nM
5,CC(C)(C)c1cc(N2CC[C@](C)(S(=O)(=O)c3ccc(Cl)cc3)C2=O)on1,25 nM
6,CC(C)(C)c1cc(NC(=O)C(C)(CCO)S(=O)(=O)c2ccc(Cl)cc2)on1 (stereo not drawn),17 nM

# Same assay, conditions: Table III, formula I compounds; CHO cells expressing human CB2R, inhibition of forskolin-stimulated cAMP synthesis; read-out: CB2 EC50
row,SMILES,EC50
1,CC1(S(=O)(=O)c2ccc(Cl)cc2)CCN(c2nnc(-c3ccccc3)[nH]2)C1=O (stereo not drawn),20 nM
2,CC(C)(C)c1cc(N2CCC(C)(S(=O)(=O)C3CCOCC3)C2=O)on1 (stereo not drawn),220 nM

# Same assay, conditions: Table VI, formula IB compounds; CHO cells expressing human CB2R, inhibition of forskolin-stimulated cAMP synthesis; read-out: CB2 EC50
row,EC50,SMILES
1,544 nM,O=C(Nc1nc(-c2ccccc2)ns1)C(CCO)S(=O)(=O)c1ccc(Cl)cc1 (stereo not drawn)
